Data: paper PMC11944515, “Host-Mediated Antimicrobial Effects and NLRP3 Inflammasome Modulation by Caulerpin and Its Derivatives in Macrophage Models of Mycobacterial Infections” (Microorganisms, 2025)

Legend:
RAW 264.7 cells = assay: Direct effects on RAW 264.7 cell viability (MTT); format: cell-based, murine
Experimental: The direct effects of CP and its analogues on RAW 264.7 viability were evaluated using the MTT method. RAW 264.7 cells were seeded at 1 × 10^4 cells/well (for 24 h incubation) and 5 × 10^3 cells/well (for 48 h incubation) and incubated overnight to allow adhesion. The culture medium was carefully aspirated and replaced with 100 μL DMEM plus 100 μL of test compound solutions, yielding final concentrations ranging from 3.25 to 30 µM (DMSO 1%, v/v). After 24 or 48 h of exposure to test compounds, cells were incubated with MTT (0.5 mg/mL) for 3 h. The resulting formazan crystals were dried, dissolved in DMSO, and absorbance was measured at 570 nm using a microplate reader (EL800, BioTek, Winooski, VT, USA). The precipitated purple formazan crystals were directly proportional to the number of metabolically active viable cells. The cell viability was then calculated as: Cell viability (%) = (Sample absorbance/Control absorbance) × 100. Data were expressed as mean of cell viability ± standard error of the mean from three to four independent experiments performed in triplicate.

[1] = test system: Mycobacterium smegmatis mc2155; assay: M. smegmatis susceptibility by CFU enumeration; format: cell-based
M. tuberculosis H37Ra = assay: M. tuberculosis susceptibility by CFU enumeration; format: cell-based, Mycobacterium tuberculosis; conditions: 0.03 μM, 48 h of treatment, positive control
Experimental: Next, CP, CA, and DE were diluted in Middlebrook 7H9 plus 10% OADC for the cellular susceptibility assay with M. tuberculosis H37Ra to yield concentrations up to 15 µM, 30 µM, and 15 µM, respectively. RIF at 0.03 µM was used as a positive control. The final DMSO concentration in all wells was 2.5%. The M. tuberculosis suspension was diluted in 7H9 plus 10% OADC to achieve an optical density of 0.006 at 595 nm, and 100 μL was then added to each well. Plates were covered, sealed with parafilm, and incubated at 37 °C for 48 h. After incubation, aliquots were removed, diluted, and plated in Middlebrook 7H10 agar plus 10% OADC. Plates were incubated at 37 °C for 4 weeks, and CFU were counted. CFU numbers were expressed as log10(CFU/mL).

[2] = test system: M. smegmatis within RAW 264.7 macrophages; assay: Therapeutic potential in M. smegmatis-infected RAW 264.7 cells (CFU); format: cell-based, Mycobacterium smegmatis; conditions: 15, 7.5 and 3.25 µM, 24 h
Experimental: For the first in vitro infection test with M. smegmatis, RAW 264.7 were seeded in 96-well culture plates at a density of 1 × 10^4 cells/well in DMEM medium (with 10% FBS, without antibiotics) and incubated overnight at 37 °C with 5% CO2 [20]. Infection of RAW 264.7 cells with M. smegmatis mc^2155 was performed at a multiplicity of infection of 1:1 for 2 h at 37 °C with 5% CO2. The medium with non-internalized bacteria was removed, and infected cells were then treated with the tested substances in DMEM: CP (15 µM, 7.5 µM and 3.25 µM), CA (30 µM, 15 µM, 7.5 µM and 3.25 µM), DE (15 µM, 7.5 µM and 3.25 µM), and DP (15 µM, 7.5 µM and 3.25 µM). Macrophages were lysed after 24 h with 0.1% Triton–X100, and these suspensions were diluted and plated on LB. CFU was determined after incubation of plates for 3 days at 37 °C. CFU numbers were expressed as log (CFU/well).

For `CCCCCOC(=O)/C1=C/c2c([nH]c3ccccc23)/C(C(=O)OCCCCC)=C\c2c1[nH]c1ccccc21` [diamyl, (6E,13E)-dipentyl 5,12-dihydrocycloocta[1,2-b:5,6-b′]diindole-6,13-dicarboxylate], the “effect on RAW 264.7 cell viability” value (RAW 264.7 cells; 24 h incubation, 3.25 to 30 µM) was “affected cell viability at all concentrations assessed”.

With `CO[C@H]1/C=C/O[C@@]2(C)Oc3c(C)c(O)c4c(O)c(c(/C=N/N5CCN(C)CC5)c(O)c4c3C2=O)NC(=O)/C(C)=C\C=C\[C@H](C)[C@H](O)[C@@H](C)[C@@H](O)[C@@H](C)[C@H](OC(C)=O)[C@@H]1C` [RIF, Rifampicin, reference compound] the “reduction of M. smegmatis CFU count” value ([1]; 31 μM, 24 h of incubation, positive control) was 3.41 log10 and the “reduction of M. tuberculosis bacterial burden” value (M. tuberculosis H37Ra) was 0.362 log10 CFU/mL.

`CCCOC(=O)/C1=C/c2c([nH]c3ccccc23)/C(C(=O)OCCC)=C\c2c1[nH]c1ccccc21` [DP, (6E,13E)-dipropyl 5,12-dihydrocycloocta[1,2-b:5,6-b′]diindole-6,13-dicarboxylate] was tested, and the “reduction of M. smegmatis viability” value ([1]; 30 μM, 24 h incubation) was 0.639 log10 CFU, the “effect on RAW 264.7 cell viability” value (RAW 264.7 cells; 24 h incubation, 3.25 to 30 µM) was “did not affect viability at any of the concentrations tested” and the “effect on RAW 264.7 cell viability” value (RAW 264.7 cells; 48 h incubation) was “did not affect cell viability at any concentration evaluated”. The “effect on intracellular M. smegmatis growth in RAW 264.7” value [2] was “no inhibitory effect”.

For `CC(C)COC(=O)/C1=C/c2c([nH]c3ccccc23)/C(C(=O)OCC(C)C)=C\c2c1[nH]c1ccccc21` [Diisobutyl, (6E,13E)-diisobutyl 5,12-dihydrocycloocta[1,2-b:5,6-b′]diindole-6,13-dicarboxylate], the “effect on RAW 264.7 cell viability” value (RAW 264.7 cells; 24 h incubation, 3.25 to 30 µM) was “affected cell viability at the three highest concentrations assessed”.
